From patent publication EP4640686A1, “DEGRADER FOR DEGRADING BRD PROTEIN AND PHARMACEUTICAL COMPOSITION CONTAINING SAME” (Innocure Therapeutics, Inc., priority 2022, dated 2024)
Like-named read-outs stand apart in the source and are kept apart here.

Assays:
Format in all cases: cell-based
[1] = molecular target: T1, BRD4-NUT (Homo sapiens, UniProt O60885+Q86Y26); experiment: BRD4-NUT protein degradation by western blotting in RPMI2650 cells (24 h treatment); conditions: RPM12650, read-out: BRD4-NUT (DC50)
T1 construct: endogenous in cells; host or cells: RPMI2650
Protocol: (§1) The synthesized compounds were prepared with a 10 mM or 50 mM raw material solution dissolved in DMSO [dimethyl sulfoxide], and were diluted sequentially and treated. [RPMI2650] and [SNU2972] were cultivated under specific conditions.
(§2) To evaluate the resolution of PROTAC for BRD4 expressed in cells, cells were dispensed in a concentration of 5 X 10^5 cells/well in a 6-well plate, and the sample was treated for 24 hours. […] Protein expression was normalized based on the expression value of β or GAPDH, and protein expression in each sample was measured as % based on 100% of samples treated with 0.1% DMSO vehicle. Protein expression was quantified using Image J program. Change in protein expression volume by compound treatment (DC50: concentration of compounds where 50% protein expression inhibition is achieved) was calculated using the GraphicPad Prism 8.0 software.

[2] = tested on: RPMI2650; experiment: Cancer cell antiproliferative activity / cell viability in RPMI2650 cells (72 h treatment); conditions: Homo sapiens
Protocol: The human breast cancer cell line [MDA-MB-231] was cultured in RPMI medium with the addition of 10% fetal bovine serum, penicillin [100U/ml], and streptomycin [[…]]. The synthesized compounds were prepared with a 10 mM or 50 mM raw material solution dissolved in DMSO [dimethyl sulfoxide], and were diluted sequentially and treated. [RPMI2650] and [SNU2972] were cultivated under specific conditions.
To observe cell growth inhibition, cells were dispensed in a concentration of 5,000 cells/well in a 96-well plate, and samples prepared at various concentrations were treated for 72 hours. The IC50 value (the concentration of the compound achieving 50% cytostaticism) is the average value of the results of three independent measurements.

[3] = molecular target: BRD4 (Homo sapiens, UniProt O60885); experiment: BRD4 protein degradation by western blotting in RPMI2650 cells (24 h treatment); parameters: To evaluate the resolution of PROTAC for BRD4 expressed in cells; endogenous in cells; host or cells: RPMI2650; conditions: RPM12650, read-out: BRD4 (DC50)
Protocol: as §1, §2

[4] = RPMI-2650, RPM12650, read-out: Cell Viatility (IC50)
[5] = RPMI-2650, 72 h, RPM12650, read-out: Cell Viatility (IC50)

| IC50 [2, 5] | Compound | DC50 [1] | IC50 [2, 4] | DC50 [3] |
| --- | --- | --- | --- | --- |
| – | CC[C@@H]1c2nnc(C)n2-c2cnc(Nc3ccc(C(=O)NC4CCN(C(=O)CN5CCN(c6ccc7c(=O)n(C8CCC(=O)NC8=O)nc(C)c7c6)CC5)CC4)cc3OC)nc2N1CC1CCCCC1 (stereo partly drawn) [ICT-0001563] | < 100 nM | > 1000 nM | < 100 nM |
| – | CC[C@@H]1c2nnc(C)n2-c2cnc(Nc3ccc(C(=O)N4CCN(CCNc5ccc6c(=O)n(C7CCC(=O)NC7=O)nc(C)c6c5)CC4)cc3OC)nc2N1CC1CCCCC1 (stereo partly drawn) [ICT-0001599, 3-(6-((2-(4-(4-(((R)-5-(cyclohexylmethyl)-4-ethyl-1-methyl-4,5-dihydro-[1,2,4]triazolo[4,3-f]pteridine-7-yl)amino)3-methoxybenzoyl)piperazine-1-yl)ethyl)amino)4-methyl-1-oxopthalazine-2(1H)-yl)piperidine-2,6-dione] | < 100 nM | > 1000 nM | < 100 nM |
| – | CC[C@@H]1c2nnc(C)n2-c2cnc(Nc3ccc(C(=O)NC4CCN(CCCC#Cc5ccc6c(=O)n(C7CCC(=O)NC7=O)ncc6c5)CC4)cc3OC)nc2N1CC1CCCCC1 (stereo partly drawn) [ICT-0001534, 4-(((R)-5-(cyclohexylmethyl)-4-ethyl-1-methyl-4,5-dihydro-[1,2,4]triazolo[4,3-f]pteridine-7-yl)amino)N-(1-(5-(2-(2,6-dioxopiperidin-3-yl)1-oxo-1,2-dihydroptalazine-6-yl)pent-4-phosphorus-1-yl)piperidine-4-yl)-3-methoxybenzamide] | > 1000 nM | > 1000 nM | > 1000 nM |
| > 1000 nM | CC[C@@H]1c2nnc(C)n2-c2cnc(Nc3ccc(C(=O)NC4CCN(CCOCCOc5ccc(NC6CCC(=O)NC6=O)cc5F)CC4)cc3OC)nc2N1CC1CCCCC1 (stereo partly drawn) [ICT-0001570, 4-{[(4R)-5-(cyclohexylmethyl)-4-ethyl-1-methyl-4H,5H-[1,2,4]triazolo[4,3-f]pteridine-7-yl]amino}-N-{1-[2-(2-{4-[(2,6-dioxopiperidin-3-yl)amino]-2-fluorophenoxy}ethoxy)ethyl]piperidine-4-yl}-3-methoxybenzamide] | > 1000 nM | – | > 1000 nM |
| > 1000 nM | CC[C@@H]1c2nnc(C)n2-c2cnc(Nc3ccc(C(=O)NC4CCN(Cc5ccc(NC6CCC(=O)NC6=O)cc5)CC4)cc3OC)nc2N1CC1CCCCC1 (stereo partly drawn) [ICT-0001569, 4-{[(4R)-5-(cyclohexylmethyl)-4-ethyl-1-methyl-4H,5H-[1,2,4]triazolo[4,3-f]pteridine-7-yl]amino}-N-[1-({4-[(2,6-dioxopiperidin-3-yl)amino]phenyl}methyl)piperidine-4-yl]-3-methoxybenzamide] | > 1000 nM | – | > 1000 nM |
| – | CC[C@@H]1c2nnc(C)n2-c2cnc(Nc3ccc(C(=O)NC4CCN(c5ccc6c(=O)n(C7CCC(=O)NC7=O)nc(C)c6c5)CC4)cc3OC)nc2N1CC1CCCCC1 (stereo partly drawn) [ICT-0001567, 4-{[(4R)-5-(cyclohexylmethyl)-4-ethyl-1-methyl-4H,5H-[1,2,4]triazolo[4,3-f]pteridine-7-yl]amino}-N-{1-[2-(2,6-dioxopiperidine-3-yl)-4-methyl-1-oxo-1,2-dihydroptalazine-6-yl]piperidine-4-yl}-3-methoxybenzamide] | > 1000 nM | > 1000 nM | > 1000 nM |
| – | CC[C@@H]1c2nnc(C)n2-c2cnc(Nc3ccc(C(=O)N4CCN(CCNc5ccc6c(C)nn(C7CCC(=O)NC7=O)c(=O)c6c5)CC4)cc3OC)nc2N1CC1CCCCC1 (stereo partly drawn) [ICT-0001600, 3-(7-((2-(4-(4-(((R)-5-(cyclohexylmethyl)-4-ethyl-1-methyl-4,5-dihydro-[1,2,4]triazolo[4,3-f]pteridine-7-yl)amino)3-methoxybenzoyl)piperazine-1-yl)ethyl)amino)4-methyl-1-oxopthalazine-2(1H)-yl)piperidine-2,6-dione] | < 100 nM | < 100 nM | < 100 nM |
